Test results taken from US20230340012A1, “NATURAL AND SYNTHETIC COMPOUNDS FOR TREATING CANCER AND OTHER DISEASES” (PACIFIC ARROW LIMITED, priority 2009, published 2023).

system: cancer cells; experiment: MTT cytotoxic assay of esterification products (Cytotoxicity activity); assay type: cell-based, human; conditions: MTT cytotoxic assay, isolated esterification products of E4A
Excerpt: The peaks, fractions and compounds are selected according to the activities of times studies and the changes of peaks. Selecting the HPLC fractions for isolation is according to the cytotoxic activity of the reaction product obtained at a specific time. The compounds having strong to weak activities are selected and isolated. Selecting the HPLC fractions for isolation may be according to the cytotoxic activity of times studies and the change of peaks. The anti-cancer activities are the MTT studies of bone (U2OS), lung (H460), bladder (HTB-9), ovary (ES2), colon (HCT116), pancreas (Capan), ovary(OVCAR3), prostate (DU145), skin (SK-Mel-5), mouth (KB), kidney (A498), breast (MCF-7), liver (HepG2), brain (T98G), leukemia (K562), cervix (HeLa).
Esterification of compound (A), (B), (C), (D1), (D2), (E), (F), (G), (H1), (H2), E4A, E4A2Y, (P1), P(2), terpene, isoprene, triterpenes, hydroxylated triterpenes, with acyl halide, wherein the halide comprise chloride, bromide, fluoride and iodide, wherein the acyl halide comprise acyl chloride, wherein acyl chloride comprise tigloyl chloride, angeloyl chloride, acetyl chloride, crotonoyl chloride, 3,3-Dimethylacryloyl chloride, senecioyl chloride, cinnamoyl chloride, pentenoyl chloride, hexanoyl chloride, benzoyl chloride, ethylbutyryl chloride, propionyl chloride, 2-propenoyl chloride, isobutyryl chloride, butyryl chloride, (2E)-2-pentenoyl chloride, 4-Pentenoyl chloride, 5-hexenoyl chloride, heptanoyl chloride, octanoyl chloride, nonanoyl chloride, decanoyl chloride, Lauroyl chloride, myristoyl chloride, oleoyl chloride. The compounds vary in composition when the time or temperature of the reaction is changed. The peaks, fractions and compounds are selected according to the activities of times studies and the changes of peaks. The compounds having strong to weak activities are selected and isolated. The anti-cancer activities (Cytotoxic Assay) are the MTT studies of bone (U2OS), lung (H460), bladder(HTB-9), ovary (ES2), colon (HCT116), pancreas (Capan), ovary(OVCAR3), prostate (DU145), skin (SK-Mel-5), mouth (KB), kidney (A498), breast (MCF-7), liver (HepG2), brain (T98G), leukemia (K562), cervix (HeLa). The active esterification products are purified with HPLC. The reaction product of mixtures and individual compounds are tested with MTT Cytotoxic Assay. Details of method are in Experiment 3 of the present application. A second esterification of compound can be selected from the above experiment results to produce new active compounds. A partial esterification compound is selected from the above experiments to perform a second or repeated with a third esterification with different acyl chloride in order to produce new active compounds with the experiments in the present application.
Method: 40 mg of triterpene core (fraction IV) was dissolved in 1 ml pyridine in a 50 ml tube. Reaction is started by adding 0.2 ml of acyl chloride (Tigloyl chloride, angeloyl chloride, Acetyl chloride, Crotonoyl chloride, 3,3-Dimethylacryloyl chloride(senecioyl chloride), Cinnamoyl chloride, Pentenoyl chloride, Hexanoyl chloride, benzoyl chloride or Ethylbutyryl chloride). The mixture is stirred for 5 sec, 1 min, 2 min, 5 min, 10 min, 30 min, 1 hr, 2 hr, 18 hr, 2 days or 3 days at 0° C., 25° C. or 75° C. temperature. At the end of reaction, 5 ml of 2N HCl or 1 M NaHCO3 is added to the reaction mixture. The solution is then extracted 3 times with 10 ml of ethyl acetate which is then evaporated under vacuum and at 45C and lyophilization. The reaction product is dissolved in 80% acetonitrile - 0.005% Trifluoroacetic acid or DMSO; and was separated with HPLC. Selecting the HPLC fractions for isolation is according to the cytotoxic activity of the reaction product obtained at a specific reaction time. The active esterification products are purified with HPLC. The reaction product of mixtures and individual compounds are tested with MTT cytotoxic assay. Structures are determined with NMR. […]

Structure (SMILES)	Cytotoxicity activity
CC=C(C)C(=O)OCC1(C)C(O)CCC2(C)C1CCC1(C)C2CC=C2C3CC(C)(C)C(O)C(O)C3(CO)C(O)CC21C (stereo not drawn) [Compound A1]	moderate
CC=C(C)C(=O)OCC12C(O)CC3(C)C(=CCC4C5(C)CCC(O)C(C)(CO)C5CCC43C)C1CC(C)(C)C(O)C2O (stereo not drawn) [Compound A2]	moderate
CC=C(C)C(=O)OCC1(C)C(O)CCC2(C)C1CCC1(C)C2CC=C2C3CC(C)(C)C(O)C(O)C3(COC(=O)C(C)=CC)C(O)CC21C (stereo not drawn) [Compound A3]	strong
CC=C(C)C(=O)OCC1(C)C(O)CCC2(C)C1CCC1(C)C2CC=C2C3CC(C)(C)C(OC(=O)C(C)=CC)C(O)C3(COC(=O)C(C)=CC)C(O)CC21C (stereo not drawn) [Compound A4]	moderate
CC=C(C)C(=O)OCC1(C)C(O)CCC2(C)C1CCC1(C)C2CC=C2C3CC(C)(C)C(O)C(OC(=O)C(C)=CC)C3(COC(=O)C(C)=CC)C(O)CC21C (stereo not drawn) [Compound A5]	moderate
CC=C(C)C(=O)OCC1(C)C(OC(=O)C(C)=CC)CCC2(C)C1CCC1(C)C2CC=C2C3CC(C)(C)C(O)C(O)C3(COC(=O)C(C)=CC)C(O)CC21C (stereo not drawn) [Compound A6]	moderate
CC=C(C)C(=O)OCC1(C)C(O)CCC2(C)C1CCC1(C)C2CC=C2C3CC(C)(C)C(O)C(O)C3(COC(=O)C(C)=CC)C(OC(=O)C(C)=CC)CC21C (stereo not drawn) [Compound A7]	moderate
CC=C(C)C(=O)OCC1(C)C(O)CCC2(C)C1CCC1(C)C2CC=C2C3CC(C)(C)C(OC(=O)C(C)=CC)C(OC(=O)C(C)=CC)C3(COC(=O)C(C)=CC)C(O)CC21C (stereo not drawn) [Compound A8]	weak
CC=C(C)C(=O)OCC1(C)C(OC(=O)C(C)=CC)CCC2(C)C1CCC1(C)C2CC=C2C3CC(C)(C)C(O)C(OC(=O)C(C)=CC)C3(COC(=O)C(C)=CC)C(O)CC21C (stereo not drawn) [Compound A9]	weak
CC=C(C)C(=O)OCC1(C)C(OC(=O)C(C)=CC)CCC2(C)C1CCC1(C)C2CC=C2C3CC(C)(C)C(O)C(O)C3(COC(=O)C(C)=CC)C(OC(=O)C(C)=CC)CC21C (stereo not drawn) [Compound A10]	weak
CC=C(C)C(=O)OCC1(C)C(OC(=O)C(C)=CC)CCC2(C)C1CCC1(C)C2CC=C2C3CC(C)(C)C(OC(=O)C(C)=CC)C(O)C3(COC(=O)C(C)=CC)C(O)CC21C (stereo not drawn) [Compound A11]	weak
CC=C(C)C(=O)OCC1(C)C(O)CCC2(C)C1CCC1(C)C2CC=C2C3CC(C)(C)C(O)C(OC(=O)C(C)=CC)C3(COC(=O)C(C)=CC)C(OC(=O)C(C)=CC)CC21C (stereo not drawn) [Compound A12]	weak
CC=C(C)C(=O)OCC1(C)C(O)CCC2(C)C1CCC1(C)C2CC=C2C3CC(C)(C)C(OC(=O)C(C)=CC)C(O)C3(COC(=O)C(C)=CC)C(OC(=O)C(C)=CC)CC21C (stereo not drawn) [Compound A13]	weak
CC=C(C)C(=O)OCC1(C)C(OC(=O)C(C)=CC)CCC2(C)C1CCC1(C)C2CC=C2C3CC(C)(C)C(O)C(OC(=O)C(C)=CC)C3(COC(=O)C(C)=CC)C(O)CC21C (stereo not drawn) [Compound A14]	weak
CC=C(C)C(=O)OCC1(C)C(OC(=O)C(C)=CC)CCC2(C)C1CCC1(C)C2CC=C2C3CC(C)(C)C(OC(=O)C(C)=CC)C(OC(=O)C(C)=CC)C3(COC(=O)C(C)=CC)C(O)CC21C (stereo not drawn) [Compound A15]	weak
CC=C(C)C(=O)OCC1(C)C(O)CCC2(C)C1CCC1(C)C2CC=C2C3CC(C)(C)C(OC(=O)C(C)=CC)C(OC(=O)C(C)=CC)C3(COC(=O)C(C)=CC)C(OC(=O)C(C)=CC)CC21C (stereo not drawn) [Compound A16]	weak
CC=C(C)C(=O)OCC1(C)C(OC(=O)C(C)=CC)CCC2(C)C1CCC1(C)C2CC=C2C3CC(C)(C)C(OC(=O)C(C)=CC)C(O)C3(COC(=O)C(C)=CC)C(OC(=O)C(C)=CC)CC21C (stereo not drawn) [Compound A17]	weak
CC=C(C)C(=O)OCC1(C)C(OC(=O)C(C)=CC)CCC2(C)C1CCC1(C)C2CC=C2C3CC(C)(C)C(O)C(OC(=O)C(C)=CC)C3(COC(=O)C(C)=CC)C(OC(=O)C(C)=CC)CC21C (stereo not drawn) [Compound A18]	weak
